# Values of other authors as cited in patent US20070042040A1, “Methods and compositions using gonadotropin hormone releasing hormone” (priority 2003, published 2007).
# Settings: mouse models
smiles,measurement,value
"C[C@]12CC[C@H]3[C@@H](CCC4=C[C@H](O)CC[C@@H]43)[C@@H]1CC[C@@H]2O [(3α,17β)-estr-4-ene-3,17-diol]",effect on bone loss,reverse bone loss
